Assay results published in BigSolDB 2.1.

CCOC(=O)OC1=C(c2cc(C)ccc2C)C(=O)NC12CCC(OC)CC2 (stereo unspecified)
solubility (mole fraction)
Conditions | 278.15 K | 283.15 K | 288.15 K | 293.15 K | 298.15 K | 303.15 K | 308.15 K | 313.15 K | 318.15 K
in acetone | 0.012 | 0.0151 | 0.0183 | 0.0221 | 0.0267 | 0.0323 | 0.0392 | 0.0472 | 0.0571
in ethanol | 0.00319 | 0.00386 | 0.00504 | 0.00624 | 0.008 | 0.0103 | 0.0132 | 0.0169 | 0.0219
in isopropanol | 0.00177 | 0.00232 | 0.0031 | 0.00415 | 0.00543 | 0.00711 | 0.00939 | 0.0125 | 0.0165
in methanol | 0.00534 | 0.00669 | 0.00803 | 0.01 | 0.0127 | 0.0159 | 0.0202 | 0.0257 | 0.0321
